Measured values published in patent US7425548B2, “Materials and methods for immune system stimulation” (Variety Chidren's Hospital, priority 2004, dated 2008).
Read-outs that look alike come from different tables or passages of the source.

System: normal lymphocytes
Assay: Quantification of cytokine and chemokine synthesis by ELISA
Type: cell-based, human
Protocol: FIGS. 8A-8H show synthesis of cytokines and chemokine in RR1-induced normal lymphocytes. Normal lymphocytes from healthy volunteers were treated with RR1 (0-100 μg) at 37° C. for 24 hours in a CO2 incubator in RPMI medium. The supernatant medium was analyzed for the production of cytokines and chemokine in an ELISA procedure using reagent kits (BD Biosciences).
Immunostimulating Properties. To measure the immune stimulatory property of RR1, the activation of the different subsets of lymphocytes, syntheses of cytokines such as interleukin (IL)-1β, IL-2, IL-4, IL-6, IL-10, IL-12 p70 and p40, IL-18, interferon (IFN)-α and γ, Tumor Necrosis factor (TNF)-α and β, monocyte chemo-attractant protein (MCP)-1, synthesis of nitric oxide (NO), and the extent of oxidative stress elicited in human lymphocytes was analyzed. Normal lymphocytes were isolated by the histopaque density gradient method from fresh blood drawn from healthy volunteers and utilized for various assays. Human leukemic (CEM) and multidrug resistant (CEM/VLB) cell lines were grown in RPMI medium supplemented with 10% fetal bovine serum and antibiotics in 5% CO2 incubator at 37° C.
Quantification of Cytokine and Chemokine Synthesis. Cytokines such as IL-1β, IL-2, IL-4, IL-6, IL-10, IL-12p40, IL-12p70, IL-18, IFN-γ and TNF-α, β and chemokine, MCP-1 were quantified by ELISA procedure using kits from BD Biosciences, according to manufacturer's protocols. IFN-α was assayed using the ELISA kit of RESEARCH DIAGNOSTICS Inc. (New Jersey). In short, 50 μl of ELISA diluent is pipetted into antibody coated wells of 96 well plates followed by 100 μl of each standard and test samples, shaken for 5 seconds to mix the contents in the wells, covered with plate sealer and incubated for 2 hours at room temperature. After incubation, the contents of the wells were aspirated and washed five times with wash solution. After complete removal of the wash solution in the final wash, 100 μl of detection solution was added, covered with plate sealer, and incubated for 1 hour. The wells were washed 7 times with wash solution and added 100 μl of one step substrate reagent and incubated for 30 minutes in dark. The color development was stopped by adding 50 μl of stop solution and the absorbance were recorded at 450 nm with a reference wave length of 570 nm in a BIO-RAD Benchmark plate reader.

[1] = RR1 0-100 μg, 24 hours (FIGS. 8A-8H)

## (1,4)-α-D-glucan [RR1]
  synthesis of IFN-γ: 90.16 pg/mL
  synthesis of IL-6: 21833 pg/mL
  synthesis of IL-12 p40: 918.23 pg/mL
  synthesis of IL-12 p70: 50.19 pg/mL
  synthesis of MCP-1: 2307 pg/mL
24 hours
  production of IFN-α: did not induce
  production of IL-2: did not induce
  production of IL-4: did not induce
  production of IL-10: did not induce
  production of TNF-β: did not induce
FIG. 8C
  RR1 concentration at which the maximum IL-12 (p40) was recorded: 10 µg/mL
[1]
  synthesis of IFN-γ: 90.16 pg
  synthesis of IL-1β: 1080 pg
  synthesis of IL-6: 21833 pg
  synthesis of IL-12 p40: 918.23 pg
  synthesis of IL-12 p70: 50.19 pg
  synthesis of IL-18: 27.47 pg
  synthesis of MCP-1: 2307 pg
  synthesis of TNF-α: 2225 pg
At 100 pg/ml concentration
  synthesis of IL-18: 27.47 pg/mL
  synthesis of TNF-α: 2225 pg/mL
